Earlier results on one compound are cited in article PMC6095608 (PLoS ONE, 2018).

For the data set, the system named is rats. The following applies: co-administered trimethoprim; cited from earlier work.

`COc1cc(Cc2cnc(N)nc2N)cc(OC)c1OC` [trimethoprim]: the “Effect on lamivudine accumulation in the renal cortex” value is “did not impair”.
